Test results as given in the NIST ThermoML archive (doi:10.1016/j.fluid.2015.03.033).
Where “and” joins values, the source holds several entries; their conditions need not be identical. Equal entries are not always repeated. Numbers after ± are expanded uncertainties.

Tests used:
[1] = Liquid, Closed cell (Static) method
[2] = excess molar enthalpy (molar enthalpy of mixing); xn = mol fraction of the nth substance listed; details: 303.15 K, 100 kPa, Liquid, Calvet calorimetry

Cc1cnccn1 [2-methylpyrazine]
vapor or sublimation pressure ([1]; 263.72 K): 0.109 ± 0.06 kPa | vapor or sublimation pressure ([1]; 273.47 K): 0.23 ± 0.06 kPa | vapor or sublimation pressure ([1]; 283.27 K): 0.457 ± 0.06 kPa | vapor or sublimation pressure ([1]; 293.24 K): 0.866 ± 0.021 kPa | vapor or sublimation pressure ([1]; 303.18 K): 1.563 ± 0.012 kPa | vapor or sublimation pressure ([1]; 313.12 K): 2.697 ± 0.014 kPa | vapor or sublimation pressure ([1]; 323.13 K): 4.476 ± 0.018 kPa | vapor or sublimation pressure ([1]; 333.11 K): 7.151 ± 0.024 kPa | vapor or sublimation pressure ([1]; 343.05 K): 11.03 ± 0.033 kPa | vapor or sublimation pressure ([1]; 353.03 K): 16.61 ± 0.046 kPa | vapor or sublimation pressure ([1]; 362.95 K): 24.08 ± 0.059 kPa

Cc1cnccn1 [2-methylpyrazine] + C1CCCCC1
excess molar enthalpy ([2]; x1 = 0.094): 0.163 ± 0.017 kcal/mol | excess molar enthalpy ([2]; x1 = 0.153): 0.234 ± 0.0237 kcal/mol | excess molar enthalpy ([2]; x1 = 0.251): 0.308 ± 0.0311 kcal/mol | excess molar enthalpy ([2]; x1 = 0.381): 0.356 ± 0.0359 kcal/mol | excess molar enthalpy ([2]; x1 = 0.474): 0.364 ± 0.0359 kcal/mol | excess molar enthalpy ([2]; x1 = 0.566): 0.36 ± 0.0359 kcal/mol | excess molar enthalpy ([2]; x1 = 0.639): 0.331 ± 0.0335 kcal/mol | excess molar enthalpy ([2]; x1 = 0.766): 0.242 ± 0.0239 kcal/mol | excess molar enthalpy ([2]; x1 = 0.845): 0.175 ± 0.0179 kcal/mol

Cc1cnccn1 [2-methylpyrazine] + CCCCCCC
excess molar enthalpy ([2]; x1 = 0.082): 0.135 ± 0.0146 kcal/mol | excess molar enthalpy ([2]; x1 = 0.175): 0.257 ± 0.0263 kcal/mol | excess molar enthalpy ([2]; x1 = 0.335): 0.353 ± 0.0359 kcal/mol | excess molar enthalpy ([2]; x1 = 0.411): 0.369 ± 0.0359 kcal/mol | excess molar enthalpy ([2]; x1 = 0.481): 0.37 ± 0.0359 kcal/mol | excess molar enthalpy ([2]; x1 = 0.523): 0.369 ± 0.0359 kcal/mol | excess molar enthalpy ([2]; x1 = 0.622): 0.344 ± 0.0335 kcal/mol | excess molar enthalpy ([2]; x1 = 0.704): 0.298 ± 0.0287 kcal/mol | excess molar enthalpy ([2]; x1 = 0.809): 0.231 ± 0.0234 kcal/mol | excess molar enthalpy ([2]; x1 = 0.877): 0.167 ± 0.0172 kcal/mol

Cc1cnccn1 [2-methylpyrazine] + Cc1ccccc1
excess molar enthalpy ([2]; x1 = 0.156): 0.00669 ± 0.000717 kcal/mol | excess molar enthalpy ([2]; x1 = 0.256): 0.0115 ± 0.0012 kcal/mol | excess molar enthalpy ([2]; x1 = 0.421): 0.0174 ± 0.00167 kcal/mol | excess molar enthalpy ([2]; x1 = 0.465): 0.0179 ± 0.00191 kcal/mol | excess molar enthalpy ([2]; x1 = 0.475): 0.0179 ± 0.00191 kcal/mol | excess molar enthalpy ([2]; x1 = 0.561): 0.0165 ± 0.00167 kcal/mol | excess molar enthalpy ([2]; x1 = 0.698): 0.00932 ± 0.000956 kcal/mol | excess molar enthalpy ([2]; x1 = 0.76): 0.00693 ± 0.000717 kcal/mol

C1CCCCC1 [cyclohexane]
vapor or sublimation pressure ([1]; 283.32 K): 6.389 ± 0.023 kPa | vapor or sublimation pressure ([1]; 288.28 K): 8.195 ± 0.026 kPa | vapor or sublimation pressure ([1]; 293.27 K): 10.42 ± 0.031 kPa | vapor or sublimation pressure ([1]; 298.25 K): 13.17 ± 0.037 kPa | vapor or sublimation pressure ([1]; 303.27 K): 16.45 ± 0.046 kPa | vapor or sublimation pressure ([1]; 313.24 K): 24.97 ± 0.062 kPa | vapor or sublimation pressure ([1]; 323.21 K): 36.72 ± 0.086 kPa | vapor or sublimation pressure ([1]; 333.21 K): 52.48 ± 0.12 kPa | vapor or sublimation pressure ([1]; 343.18 K): 72.98 ± 0.15 kPa | vapor or sublimation pressure ([1]; 353.14 K): 99.11 ± 0.2 kPa

CCCCCCC [heptane]
vapor or sublimation pressure ([1]; 263.45 K): 0.817 ± 0.008 kPa | vapor or sublimation pressure ([1]; 273.27 K): 1.548 ± 0.011 kPa | vapor or sublimation pressure ([1]; 283.21 K): 2.77 ± 0.014 kPa | vapor or sublimation pressure ([1]; 293.25 K): 4.772 ± 0.019 kPa | vapor or sublimation pressure ([1]; 303.15 K): 7.807 ± 0.026 kPa | vapor or sublimation pressure ([1]; 313.12 K): 12.41 ± 0.037 kPa | vapor or sublimation pressure ([1]; 323.1 K): 18.98 ± 0.052 kPa | vapor or sublimation pressure ([1]; 333.07 K): 28.13 ± 0.073 kPa | vapor or sublimation pressure ([1]; 343.04 K): 40.62 ± 0.1 kPa | vapor or sublimation pressure ([1]; 353.01 K): 57.56 ± 0.13 kPa

Cc1ccccc1 [toluene]
vapor or sublimation pressure ([1]; 263.64 K): 0.484 ± 0.005 kPa | vapor or sublimation pressure ([1]; 273.47 K): 0.925 ± 0.009 kPa | vapor or sublimation pressure ([1]; 283.32 K): 1.68 ± 0.011 kPa | vapor or sublimation pressure ([1]; 293.24 K): 2.926 ± 0.014 kPa | vapor or sublimation pressure ([1]; 298.25 K): 3.803 ± 0.016 kPa | vapor or sublimation pressure ([1]; 303.21 K): 4.896 ± 0.019 kPa | vapor or sublimation pressure ([1]; 303.23 K): 4.896 ± 0.019 kPa and 4.894 ± 0.019 kPa | vapor or sublimation pressure ([1]; 313.19 K): 7.872 ± 0.025 kPa | vapor or sublimation pressure ([1]; 313.22 K): 7.872 ± 0.025 kPa | vapor or sublimation pressure ([1]; 323.22 K): 12.25 ± 0.035 kPa | vapor or sublimation pressure ([1]; 333.2 K): 18.57 ± 0.049 kPa | vapor or sublimation pressure ([1]; 343.16 K): 27.2 ± 0.064 kPa
